The source of these data is ChEMBL document CHEMBL1151057, “Difunctional enols of N-protected amino acids as low molecular weight and novel inhibitors of HIV-1 protease” (Bioorg Med Chem Lett, 1993).

One may read the IC50 as the concentration that inhibits the measured activity by half. High values mean weaker potency, low ones greater potency.

The first test concerns the target T1, Human immunodeficiency virus type 1 protease (Human immunodeficiency virus 1, UniProt Q72874). Description: Inhibitory concentration required to inhibit HIV-1 protease was determined.
Conditions: not given; call rule not given here
In turn, `CC(C)(C)OC(=O)NCC(=O)N[C@@H](Cc1ccccc1)/C(O)=C(\C#N)c1ccc([N+](=O)[O-])cc1` showed an IC50 of 58 µM.

The next test addresses T1, Human immunodeficiency virus type 1 protease. As to the kind of experiment: Apparent inhibitory constant against HIV-1 protease was determined. Particulars: read-out: Ki app.
Consider `CC(C)(C)OC(=O)N[C@@H](Cc1ccccc1)/C(O)=C(\C#N)c1c(F)c(F)c(F)c(F)c1F`, for which the Ki came out at 0.48 µM.

Turning to `CC(C)(C)OC(=O)N[C@H](C(=O)/C(C#N)=C(\O)c1ccccc1)C(=O)C(N)Cc1ccccc1` (stereo partly drawn), the Ki came out at 320 µM.

For `CC(=O)NC(CC(C)C)C(=O)N[C@@H](Cc1ccccc1)/C(O)=C(\C#N)c1c(F)c(F)c(F)c(F)c1F` (stereo partly drawn), the Ki was determined as 7 µM.

Take `CC(C)(C)OC(=O)N[C@@H](Cc1ccccc1)/C(O)=C(\C#N)c1ccc([N+](=O)[O-])cc1`: the Ki turned out to be 2.3 µM.

With `CC(C)(C)OC(=O)N[C@@H](C(=O)C(N)Cc1c[nH]c2ccccc12)/C(O)=C(\C#N)c1ccc([N+](=O)[O-])cc1` (stereo partly drawn), the Ki came out at 18 µM.

For the molecule `N#C/C(=C(/O)[C@H](Cc1ccccc1)NC(=O)OCC1c2ccccc2-c2ccccc21)c1ccc([N+](=O)[O-])cc1`, the Ki worked out at 78 µM.

Turning to `CC(C)(C)OC(=O)N[C@@H](C(=O)C(N)Cc1ccc([N+](=O)[O-])cc1)/C(O)=C(\C#N)c1ccc([N+](=O)[O-])cc1` (stereo partly drawn), the Ki was 60 µM.

Take `CC(C)(C)OC(=O)N[C@@H](C(=O)C(N)c1ccccc1)/C(O)=C(\C#N)c1ccc([N+](=O)[O-])cc1` (stereo partly drawn): the Ki was found to be 30 µM.

Consider `CC(C)(C)OC(=O)N[C@@H](C(=O)C(N)CC1CCCCC1)/C(O)=C(\C#N)c1ccc([N+](=O)[O-])cc1` (stereo partly drawn), for which the Ki came to 15 µM.

Consider `CC(C)(C)OC(=O)N[C@@H](C(=O)C1CCCN1)/C(O)=C(\C#N)c1ccc([N+](=O)[O-])cc1` (stereo partly drawn), for which the Ki turned out to be 181 µM.

For the molecule `CC(C)(C)OC(=O)N[C@@H](C(=O)C(N)Cc1ccccc1)/C(O)=C/c1ccc([N+](=O)[O-])cc1` (stereo partly drawn), the Ki was found to be 689 µM.

Consider `CC(C)(C)OC(=O)N[C@@H](C(=O)C(N)Cc1ccc(OCc2ccccc2)cc1)/C(O)=C(\C#N)c1ccc([N+](=O)[O-])cc1` (stereo partly drawn), for which the Ki turned out to be 12 µM.

With `CC(=O)NC(CC(C)C)C(=O)N[C@@H](Cc1ccccc1)/C(O)=C(\C#N)c1ccc([N+](=O)[O-])cc1` (stereo partly drawn), the Ki stood at 9 µM.

For `CC(C)(C)OC(=O)N[C@@H](C(=O)[C@@H](N)Cc1ccccc1)/C(O)=C(\C#N)c1ccc([N+](=O)[O-])cc1`, the Ki stood at 54 µM.

`N#C/C(=C(/O)[C@H](Cc1ccccc1)NC(=O)OCc1ccccc1)c1ccc([N+](=O)[O-])cc1`: the Ki turned out to be 30 µM.

Consider `CC(C)(C)OC(=O)N[C@@H](C(=O)C(N)Cc1ccc2ccccc2c1)/C(O)=C(\C#N)c1ccc([N+](=O)[O-])cc1` (stereo partly drawn), for which the Ki is 38 µM.

The target is the same in the next test. Description: Inhibitory constant against HIV-1 protease at 400 uM; NI means no inhibition.
Conditions: not given
As for `CC(=O)NC(CC(C)C)C(=O)N[C@@H](Cc1ccccc1)C(O)=C(C#N)C#N` (stereo partly drawn), the Ki entry is recorded as “Not Active”.

The target is the same in the next test. As to the kind of experiment: Inhibitory constant against HIV-1 protease was determined.
Conditions: not given
`CC(=O)NC(CC(C)C)C(=O)N[C@@H](Cc1ccccc1)/C(O)=C(\C#N)S(=O)(=O)c1ccccc1` (stereo partly drawn) displayed a Ki of 152 µM.

`CCOP(=O)(OCC)/C(C#N)=C(\O)[C@H](Cc1ccccc1)NC(=O)C(CC(C)C)NC(C)=O` (stereo partly drawn) displayed a Ki of 206 µM.

On to `CO/C(O)=C(/C#N)C(=O)[C@H](Cc1ccccc1)NC(=O)C(CC(C)C)NC(C)=O` (stereo partly drawn), for which the Ki was 209 µM.

Turning to `CC(=O)NC(CC(C)C)C(=O)N[C@@H](Cc1ccccc1)/C(O)=C(\C#N)c1ccncc1` (stereo partly drawn), the Ki was determined as 168 µM.

`CC(=O)NC(CC(C)C)C(=O)N[C@@H](Cc1ccccc1)/C(O)=C(\C#N)c1ccc([N+](=O)[O-])cc1` (stereo partly drawn) showed a Ki of 9.5 µM.
